Where “and” joins values, the source holds several entries; their conditions need not be identical. Identical values can stand only once.
Experiment: xn = mol fraction of the nth substance listed

O=C(O)[C@@H]1CCCN1 + O
viscosity [mPa·s], 101 kPa
Settings	x1 = 0.00045	x1 = 0.0009	x1 = 0.00135	x1 = 0.001798	x1 = 0.002245	x1 = 0.002695	x1 = 0.003143	x1 = 0.003588
293.15 K	1.009	1.018	1.027	1.036	1.045	1.054	1.064	1.073
298.15 K	0.8966	0.9039	0.9114	0.9192	0.9269	0.9349	0.9428	0.9507
303.15 K	0.8027	0.809	0.8154	0.8221	0.8288	0.8354	0.8421	0.8487
308.15 K	0.7236	0.7289	0.7344	0.7401	0.7456	0.7513	0.757	0.7625
313.15 K	0.6566	0.6611	0.6658	0.6705	0.6753	0.68	0.6849	0.6894
318.15 K	0.6007	0.6045	0.6085	0.6125	0.6164	0.6204	0.6244	0.6282

O=C(O)CCl + O
293.35 K, 101 kPa
Settings	viscosity [mPa·s]
x1 = 0.01308	11070
x1 = 0.02204	12080
x1 = 0.02477	11950
x1 = 0.0251	11580
x1 = 0.03355	12540
x1 = 0.05294	15100

ClC(Cl)Cl + C1CCCCC1
298.15 K, 101 kPa
Settings	viscosity [mPa·s]
x1 = 0.2026	0.7795
x1 = 0.3543	0.6917
x1 = 0.4317	0.665
x1 = 0.5593	0.6217
x1 = 0.6464	0.6057
x1 = 0.7738	0.5875
x1 = 0.886	0.5657

NCCCC(=O)O + O
viscosity, 100 kPa
Settings	x1 = 0.0004	x1 = 0.0007	x1 = 0.0008999	x1 = 0.001	x1 = 0.0018	x1 = 0.002695	x1 = 0.004484	x1 = 0.006266	x1 = 0.008927
298.15 K	–	–	0.905 mPa·s	–	–	0.935 mPa·s	0.963 mPa·s	0.991 mPa·s	1.03 mPa·s
308.15 K	0.723 mPa·s	0.728 mPa·s	0.732 mPa·s	0.731 mPa·s and 0.735 mPa·s	0.742 mPa·s	0.76 mPa·s	–	0.814 mPa·s	0.852 mPa·s
313.15 K	0.655 mPa·s	0.66 mPa·s	–	0.662 mPa·s and 0.666 mPa·s	0.672 mPa·s	–	–	–	–
318.15 K	0.599 mPa·s	0.603 mPa·s	0.605 mPa·s	0.605 mPa·s and 0.609 mPa·s	0.614 mPa·s	0.623 mPa·s	0.64 mPa·s	0.658 mPa·s	0.684 mPa·s

ClC(Cl)Cl + CCCCCC
viscosity [mPa·s], 101 kPa
Settings	x2 = 0.098	x2 = 0.202	x2 = 0.2873	x2 = 0.4056	x2 = 0.5009	x2 = 0.5885	x2 = 0.7253	x2 = 0.8116	x2 = 0.9008
293.15 K	0.5269	0.4839	0.4558	0.42	0.3965	0.3762	0.3509	0.3368	0.3242
298.15 K	0.5028	0.4606	0.434	0.3996	0.3781	0.3582	0.3341	0.3206	0.309
303.15 K	0.4779	0.4396	0.4142	0.3811	0.3628	0.3413	0.3186	0.3056	0.2945
313.15 K	0.4362	0.3998	0.3783	0.3472	0.3308	0.311	0.2912	0.2786	0.2683

[I-].[Li+] + O
Settings	viscosity [mPa·s]
293.15 K, 100 kPa, x1 = 0.005076	1.025
293.15 K, 101 kPa, x1 = 0.00701	1.029
293.15 K, 101 kPa, x1 = 0.01933	1.076
293.15 K, 101 kPa, x1 = 0.04884	1.205
293.15 K, 101 kPa, x1 = 0.06296	1.292
293.15 K, 101 kPa, x1 = 0.08324	1.429
293.15 K, 101 kPa, x1 = 0.1073	1.656
293.15 K, 101 kPa, x1 = 0.1418	2.218
303.15 K, 101 kPa, x1 = 0.0017	0.808
303.15 K, 101 kPa, x1 = 0.00416	0.813
303.15 K, 101 kPa, x1 = 0.00701	0.821
303.15 K, 101 kPa, x1 = 0.01933	0.866
303.15 K, 101 kPa, x1 = 0.02768	0.895
303.15 K, 101 kPa, x1 = 0.04884	0.977
303.15 K, 101 kPa, x1 = 0.06296	1.049
303.15 K, 101 kPa, x1 = 0.08324	1.178
303.15 K, 101 kPa, x1 = 0.1073	1.376
303.15 K, 101 kPa, x1 = 0.1418	1.819
310.15 K, 101 kPa, x1 = 0.000205	0.6972
310.15 K, 101 kPa, x1 = 0.00126	0.6998
310.15 K, 101 kPa, x1 = 0.001978	0.7017
310.15 K, 101 kPa, x1 = 0.002695	0.7035
310.15 K, 101 kPa, x1 = 0.003679	0.706
310.15 K, 101 kPa, x1 = 0.005197	0.7098
310.15 K, 101 kPa, x1 = 0.005988	0.7118
323.15 K, 101 kPa, x1 = 0.0017	0.555
323.15 K, 101 kPa, x1 = 0.00416	0.561
323.15 K, 101 kPa, x1 = 0.00701	0.567
323.15 K, 101 kPa, x1 = 0.01933	0.602
323.15 K, 101 kPa, x1 = 0.02768	0.628
323.15 K, 101 kPa, x1 = 0.04884	0.693
323.15 K, 101 kPa, x1 = 0.06296	0.752
323.15 K, 101 kPa, x1 = 0.08324	0.849
323.15 K, 101 kPa, x1 = 0.1073	1.002
323.15 K, 101 kPa, x1 = 0.1418	1.344

O=CC(Cl)(Cl)Cl + CCC(C)=O
viscosity [mPa·s], 101 kPa
Settings	x1 = 0.1183	x1 = 0.2018	x1 = 0.3006	x1 = 0.3959	x1 = 0.5007	x1 = 0.5979	x1 = 0.6814	x1 = 0.7599	x1 = 0.847
298.15 K	0.5125	0.5629	0.6247	0.6758	0.7457	0.8097	0.8541	0.8952	0.9503
323.15 K	0.3989	0.4323	0.4784	0.5132	0.5619	0.6053	0.6241	0.6588	0.7035

ClC(Cl)Cl + COC(=O)OC
viscosity [mPa·s], 101.33 kPa
Settings	x2 = 0.0987	x2 = 0.2134	x2 = 0.3031	x2 = 0.4027	x2 = 0.5031	x2 = 0.6187	x2 = 0.7021	x2 = 0.7996	x2 = 0.9013
298.15 K	0.528	0.553	0.566	0.57	0.565	0.559	0.546	0.545	0.541
303.15 K	0.501	0.525	0.53	0.536	0.531	0.523	0.514	0.513	0.509
308.15 K	0.475	0.494	0.504	0.507	0.502	0.493	0.484	0.48	0.48

ClC(Cl)Cl + CC(C)OC(C)C
298.15 K, 101 kPa
Settings	viscosity
x1 = 0.07	0.325 mPa·s
x1 = 0.12	0.35 mPa·s
x1 = 0.13	0.353 mPa·s
x1 = 0.16	0.369 mPa·s
x1 = 0.21	0.39 mPa·s
x1 = 0.26	0.413 mPa·s
x1 = 0.31	0.437 mPa·s
x1 = 0.35	0.458 mPa·s
x1 = 0.4	0.484 mPa·s
x1 = 0.46	0.507 mPa·s
x1 = 0.5	0.523 mPa·s
x1 = 0.55	0.543 mPa·s
x1 = 0.6	0.553 mPa·s
x1 = 0.65	0.565 mPa·s
x1 = 0.71	0.572 mPa·s
x1 = 0.76	0.577 mPa·s
x1 = 0.8	0.579 mPa·s
x1 = 0.85	0.581 mPa·s
x1 = 0.9	0.58 mPa·s
x1 = 0.95	0.579 mPa·s and 0.58 mPa·s

From the CheMixHub viscosity set
